According to patent US20250215039A1, “NUCLEOSIDES FOR TREATING CANCER” (PRIMEFOUR THERAPEUTICS, INC., priority 2022, published 2025):
Like-named read-outs stand apart in the source and are kept apart here.

Assays:
[1] = target: human cytidine deaminase (CDA) (Homo sapiens, UniProt P32320); experiment: Metabolism by human cytidine deaminase (CDA), substrate absorbance at 290 nm
Procedure: Transfer 7.2 μl of each of the substrate DMSO stock in step 2 into a 500 μl 96-Well V-bottom Microplate, clear SBS footprint, cat #P-96-450V-C
Add 352.8 μl assay buffer to the wells
For deaminated product compounds mix 4 μl product with 196 μl assay buffer
This was incubated at 37° C. for 1 h. 200 μl of this mixture was transferred into the assay plate to serve as the product control.
Product+buffer: mix 80 ul of the 2.5× intermediate product stocks (from step 3) with 120 ul assay buffer into product control (no enzyme) wells
Incubate the plate alongside the 20 nM CDA enzyme intermediate stock at 37° C. to temperature equilibrate reagents
Add 120 μl of the 20 nM enzyme mix into the Substrate+CDA wells and start reading at 290 nm every 30 s for about 60 min
50 and 200 uM substrate and product
In 100 mM Tris, pH 7.5, 100 mM KCl, 0.8% carryover DMSO
5 min incubation at 37° C.
Absorbance at 290 nm every 30 s at 37° C. for 1 h using FlexStation 3
Convert A290 to concentration of substrate remaining at time t after enzyme addition:
[formula] • where: • St=absorbance reading of: substrate+CDA wells at time t • So=Average absorbance reading of: substrate+buffer wells • Po=Average absorbance reading of: product+buffer wells • [S]t=initial substrate concentration • Use GraphPad to plot [substrate] against time to calculate initial velocity or slope (μMs^−1) i.e. the linear range of each curve • Express rate in s^−1 by dividing initial velocity by the total enzyme concentration.
Plot rate against [substrate] and fit data to standard Michaelis Menten equation to obtain kcat and KM parameters.

[2] = system: cancer cell lines; experiment: Cancer cell proliferation activity (CellTiterGlo, 72 h); type: cell-based; details: 72 h, 72 h, read-out: IC50
Procedure, shortened: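 Readout is CellTiterGlo luminescence after 72 h compound exposure (0.1% DMSO final), started one day post-seeding, at 37 °C.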

human cytidine deaminase (CDA), sequence (P32320 whole entry): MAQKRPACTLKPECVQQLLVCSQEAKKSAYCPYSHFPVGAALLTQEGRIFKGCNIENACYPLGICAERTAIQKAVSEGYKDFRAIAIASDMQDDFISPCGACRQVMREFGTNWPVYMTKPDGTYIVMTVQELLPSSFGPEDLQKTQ

## N#C[C@]1(CO)O[C@@H](n2cc(F)c(N)nc2=O)C[C@@H]1O [Cpd. No. 6, (2R,3S,5R)-5-(4-amino-5-fluoro-2-oxopyrimidin-1(2H)-yl)-3-hydroxy-2-(hydroxymethyl)tetrahydrofuran-2-carbonitrile]
[1]; 12 nM CDA, 50 and 200 uM substrate, 37° C., pH 7.5, figure legends FIG. 4-9
  metabolism (deamination) by human CDA (line graph): not metabolized
[1]; rate of substrate conversion at 200 μM, could not be fitted
  substrate conversion by CDA (Inactive): Inactive
[2]; 5637 cell line (bladder)
  IC50: > 50 µM
[2]; CLS439 cell line (bladder)
  IC50: > 50 µM
[2]; HS729 cell line (muscle)
  IC50: > 50 µM
[2]; JAR cell line (placenta)
  IC50: > 50 µM
[2]; U20S cell line, bone
  IC50: > 50 µM
[2]; Homo sapiens, 22Rv1, 72 h, 22RV1 cell line (prostate)
  IC50: > 50 µM
[2]; Homo sapiens, 786-0, 72 h, 786O cell line (kidney)
  IC50: > 50 µM
[2]; Homo sapiens, A204, 72 h, A204 cell line (muscle)
  IC50: 7.27 µM
[2]; Homo sapiens, A549, 72 h, A549 cell line, lung
  IC50: > 50 µM
[2]; Homo sapiens, A673, 72 h, A673 cell line (bone)
  IC50: > 50 µM
[2]; Homo sapiens, A2780, 72 h, A2780 cell line (ovary)
  IC50: > 50 µM
[2]; Homo sapiens, A-375, 72 h, A375 cell line (skin)
  IC50: > 50 µM
[2]; Homo sapiens, A-431, 72 h, A431 cell line (skin)
  IC50: > 50 µM
[2]; Homo sapiens, ACHN, ACHN cell line (kidney)
  IC50: > 50 µM
[2]; Homo sapiens, ASPC1, 72 h, ASPC1 cell line (pancreas)
  IC50: > 50 µM
[2]; Homo sapiens, BT-20, 72 h, BT20 cell line (breast)
  IC50: > 50 µM
[2]; Homo sapiens, BXPC-3, 72 h, BXPC3 cell line (pancreas)
  IC50: > 50 µM
[2]; Homo sapiens, C-33-A, C33A cell line, endometrial
  IC50: > 50 µM
[2]; Homo sapiens, CAKI-1, 72 h, CAKI1 cell line (kidney)
  IC50: > 50 µM
[2]; Homo sapiens, COLO 205, 72 h, COLO205 cell line (colon)
  IC50: > 50 µM
[2]; Homo sapiens, COLO-678, 72 h, COLO678 cell line (colon)
  IC50: > 50 µM
[2]; Homo sapiens, Ca-Ski, CASKI cell line, endometrial
  IC50: > 50 µM
[2]; Homo sapiens, Caco-2, 72 h, CACO2 cell line (colon)
  IC50: > 50 µM
[2]; Homo sapiens, Calu-6, 72 h, CALU6 cell line (lung)
  IC50: > 50 µM
[2]; Homo sapiens, DLD-1, 72 h, DLD1 cell line (colon)
  IC50: > 50 µM
[2]; Homo sapiens, DU-145, 72 h, DU145 cell line (prostate)
  IC50: > 50 µM
[2]; Homo sapiens, EFO-21, 72 h, EFO21 cell line (ovary)
  IC50: > 50 µM
[2]; Homo sapiens, EJ-28, 72 h, EJ28 cell line (bladder)
  IC50: > 50 µM
[2]; Homo sapiens, Granta-519, 72 h, GRANTA-519 cell line (hematological)
  IC50: 0.46 µM
[2]; Homo sapiens, HCT-15, 72 h, HCT15 cell line (colon)
  IC50: > 50 µM
[2]; Homo sapiens, HCT-116, 72 h, HCT116 cell line (colon)
  IC50: > 50 µM
[2]; Homo sapiens, HEK293, 72 h, HEK293 cell line (kidney)
  IC50: > 50 µM
[2]; Homo sapiens, HL-60, 72 h, HL-60 cell line (hematological)
  IC50: > 50 µM
[2]; Homo sapiens, HT-29, 72 h, HT29 cell line (colon)
  IC50: > 50 µM
[2]; Homo sapiens, HT-1080, 72 h, HT1080 cell line (connective tissue)
  IC50: > 50 µM
[2]; Homo sapiens, HeLa, HELA cell line, endometrial
  IC50: > 50 µM
[2]; Homo sapiens, HepG2, 72 h, HEPG2 cell line (liver)
  IC50: > 50 µM
[2]; Homo sapiens, Hs-578T, HS578T cell line, breast
  IC50: > 50 µM
[2]; Homo sapiens, IGROV-1, 72 h, IGROV1 cell line (ovary)
  IC50: > 50 µM
[2]; Homo sapiens, IMR-90, 72 h, IMR90 cell line, lung
  IC50: > 50 µM
[2]; Homo sapiens, J82, 72 h, J82 cell line (bladder)
  IC50: > 50 µM
[2]; Homo sapiens, JEG-3, 72 h, JEG3 cell line (placenta)
  IC50: > 50 µM
[2]; Homo sapiens, JIMT-1, 72 h, JIMT1 cell line (breast)
  IC50: > 50 µM
[2]; Homo sapiens, K562, 72 h, K-562 cell line (hematological)
  IC50: > 50 µM
[2]; Homo sapiens, Kasumi 1, 72 h, KASUMI-1 cell line (hematological)
  IC50: > 50 µM
[2]; Homo sapiens, L-363, 72 h, L-363 cell line (hematological)
  IC50: > 50 µM
[2]; Homo sapiens, LoVo, LOVO cell line (colon)
  IC50: > 50 µM
[2]; Homo sapiens, MCF7, 72 h, MCF7 cell line (breast)
  IC50: > 50 µM
[2]; Homo sapiens, MDA-MB-231, 72 h, MDAMB231 cell line (breast)
  IC50: > 50 µM
[2]; Homo sapiens, MDA-MB-435, 72 h, MDAMB435 cell line (skin)
  IC50: > 50 µM
[2]; Homo sapiens, MDA-MB-436, 72 h, MDAMB436 cell line (breast)
  IC50: > 50 µM
[2]; Homo sapiens, MDA-MB-468, 72 h, MDAMB468 cell line (breast)
  IC50: > 50 µM
[2]; Homo sapiens, MG-63, 72 h, MG63 cell line (bone)
  IC50: > 50 µM
[2]; Homo sapiens, MHH-ES-1, 72 h, MHHES1 cell line (bone)
  IC50: > 50 µM
[2]; Homo sapiens, MIA PaCa-2, 72 h, MIAPACA2 cell line (pancreas)
  IC50: > 50 µM
[2]; Homo sapiens, MINO, MINO cell line (hematological)
  IC50: 0.68 µM
[2]; Homo sapiens, MV4-11, 72 h, MV4-11 cell line (hematological)
  IC50: > 50 µM
[2]; Homo sapiens, NCI-H23, 72 h, NCI-H23 cell line (lung)
  IC50: > 50 µM
[2]; Homo sapiens, NCI-H82, 72 h, NCIH82 cell line (lung)
  IC50: > 50 µM
[2]; Homo sapiens, NCI-H292, 72 h, NCIH292 cell line (lung)
  IC50: > 50 µM
[2]; Homo sapiens, NCI-H460, 72 h, NCIH460 cell line (lung)
  IC50: > 50 µM
[2]; Homo sapiens, OVCAR-3, 72 h, OVCAR3 cell line (ovary)
  IC50: > 50 µM
[2]; Homo sapiens, OVCAR-4, 72 h, OVCAR4 cell line (ovary)
  IC50: > 50 µM
[2]; Homo sapiens, PANC-1, 72 h, PANC1 cell line (pancreas)
  IC50: > 50 µM
[2]; Homo sapiens, PC-3, 72 h, PC3 cell line (prostate)
  IC50: > 50 µM
[2]; Homo sapiens, PLC-PRF-5, 72 h, PLCPRF5 cell line (liver)
  IC50: > 50 µM
[2]; Homo sapiens, Panc1005, 72 h, PANC1005 cell line (pancreas)
  IC50: > 50 µM
[2]; Homo sapiens, RD, RD cell line (muscle)
  IC50: > 50 µM
[2]; Homo sapiens, Ramos, RAMOS cell line (hematological)
  IC50: 8.68 µM
[2]; Homo sapiens, SAOS-2, 72 h, SAOS2 cell line (bone)
  IC50: 2.05 µM
[2]; Homo sapiens, SF-268, 72 h, SF268 cell line (brain)
  IC50: > 50 µM
[2]; Homo sapiens, SF-295, 72 h, SF295 cell line (brain)
  IC50: > 50 µM
[2]; Homo sapiens, SK-BR-3, 72 h, SKBR3 cell line (breast)
  IC50: > 50 µM
[2]; Homo sapiens, SK-HEP1, 72 h, SKHEP1 cell line (liver)
  IC50: > 50 µM
[2]; Homo sapiens, SK-LMS-1, 72 h, SKLMS1 cell line (uterus)
  IC50: > 50 µM
[2]; Homo sapiens, SK-MEL-5, 72 h, SKMEL5 cell line, skin
  IC50: > 50 µM
[2]; Homo sapiens, SK-MEL-28, 72 h, SKMEL28 cell line (skin)
  IC50: > 50 µM
[2]; Homo sapiens, SK-N-AS, SKNAS cell line (brain)
  IC50: > 50 µM
[2]; Homo sapiens, SK-N-SH, SKNSH cell line (brain)
  IC50: > 50 µM
[2]; Homo sapiens, SK-OV-3, 72 h, SKOV3 cell line (ovary)
  IC50: > 50 µM
[2]; Homo sapiens, SNB-75, 72 h, SNB75 cell line (brain)
  IC50: > 50 µM
[2]; Homo sapiens, SU-DHL10, 72 h, SU-DHL-10 cell line (hematological)
  IC50: 2.55 µM
[2]; Homo sapiens, SU-DHL-6, 72 h, SU-DHL-6 cell line (hematological)
  IC50: > 50 µM
[2]; Homo sapiens, SW-620, 72 h, SW620 cell line (colon)
  IC50: > 50 µM
[2]; Homo sapiens, T-24, 72 h, T24 cell line (bladder)
  IC50: > 50 µM
[2]; Homo sapiens, TE-671, 72 h, TE671 cell line (muscle)
  IC50: > 50 µM
[2]; Homo sapiens, THP-1, 72 h, THP-1 cell line (hematological)
  IC50: > 50 µM
[2]; Homo sapiens, U-87 MG, U87MG cell line (brain)
  IC50: > 50 µM
[2]; Homo sapiens, UMUC3, 72 h, UMUC3 cell line (bladder)
  IC50: > 50 µM
[2]; Homo sapiens, UO-31, 72 h, UO31 cell line (kidney)
  IC50: > 50 µM
[2]; Homo sapiens, WSU-NHL, WSU-NHL cell line (hematological)
  IC50: 2.32 µM
[2]; MT-3, 72 h, MT3 cell line (breast)
  IC50: > 50 µM
[2]; NCI-H358M, NCIH358M cell line (lung)
  IC50: > 50 µM
[2]; PBMC, PBMC (hematological)
  IC50: > 50 µM
[2]; RD-ES, RDES cell line (bone)
  IC50: > 50 µM
